Reference: patent US20250388529A1, “N-Substituted Phenylalkylamines and Their Use as Therapeutic Agents” (priority 2023, published 2025)
“And” between values parts separate entries of the source, which are not always exact repeats. Equal values may be shown once.

Columns and labels:
[1] = target: T1, HiBiT-5-HT2A (Homo sapiens, UniProt P28223); assay: NanoBRET Target Engagement competitive displacement of […], HiBiT-5-HT2A transiently expressed in HEK293 cells; conditions: equilibrium competitive displacement, Cheng-Prusoff; read-out: KI (binding affinity) at 5-HT2A
T1 construct: expressed in transfected cells; host or cells: HEK293 (transient)

[2] = target: T2, human 5-HT2C receptor (Homo sapiens, UniProt P28335); assay: Gq-mediated calcium flux assay, Flp-In 293 T-Rex inducible cells (agonist and antagonist mode); assay type: cell-based
T2 construct: expressed in transfected cells

[3] = system: wildtype mouse prefrontal cortex layer V pyramidal neurons; assay: Brain slice current clamp recording of membrane properties and action potential firing; assay type: cell-based
Method: Animals: Wildtype C57BL/6J mice were obtained from the Jackson Labs. Male and female pups, age postnatal day (P) 17-23, were used for the electrophysiological experiments. Animals were housed in the Unit for Laboratory Animal Medicine at the University of Michigan. All procedures were performed in accordance with the NIH and approved by the University of Michigan IACUC.
Brain Slice Preparation: Acute brain slices were prepared as described previously (Hull et al., Ann Clin Transl Neur., 2020; 7 (11): 2137-2149). Briefly, mice were anesthetized with isoflurane anesthesia and decapitated. Brains were carefully removed from the skull and placed in ice-cold carbogen-aerated slice solution containing (in mM): 110 sucrose, 62.5 NaCl, 2.5 KCl, 6 MgCl2, 1.25 KH2PO4, 26 NaHCO3, 0.5 CaCl2), 20 D-glucose, pH 7.35-7.40. Brains were blocked and slices were cut using a vibrating microtome (Electron Microscopy Sciences) in 250 μm thick coronal sections from prefrontal cortex. Slices were incubated in an aerated holding chamber containing slice solution for 30 minutes at room temperature and then incubated in 1:1 slice: artificial cerebrospinal solution (ACSF) for 30 minutes at 35° C. ACSF contained in mM (125 NaCl; 2.5 KCl; 1 MgCl2; 1.25 KH2PO4; 26 NaHCO3; 2 CaCl2); and 20 D-glucose (pH 7.35-7.40). Slices were then aerated in a holding chamber containing 100% ACSF for at least 30 min at room temperature before recording.
Action Potential Recording and Analysis: Individual brain slices were placed in an RC-26 recording chamber (Warner Instruments) and superfused with aerated ACSF at a flowrate of 2-3 mL/min equipped with an inline heater (Warner Instruments) to maintain the recording temperature at 33-35° C. Layer 5 pyramidal neurons were identified based on their large soma size, shape, and location using an AIR upright confocal microscope (Nikon) equipped with IR-DIC optics and a 40× water immersion objective. Only vertically oriented pyramidal cells were selected for recording. […] The junction potential was calculated to be 14.3 mV using the P-clamp junction potential calculator and all values presented in the study are uncorrected. Following break in at −94.3 mV in voltage clamp mode, the resting membrane potential was defined as the membrane potential in current clamp <10 s after initial break in for baseline or immediately after XOB perfusion. Repetitive action potential firing was elicited in whole-cell current clamp from the resting membrane potential in 1 s long current injections in 10 pA steps from −20 pA to +400 pA. There was a 1 s long 0 pA current injection between each sweep. Data were acquired at 20 kHz and were filtered at 10 kHz. Cells with an access resistance measured in voltage clamp >20 MΩ or RMP more depolarized than −64.3 mV were not used. Access resistance and pipette capacitance were compensated using bridge balance. Whole cell capacitance was measured using P-clamp whole cell capacitance compensation in voltage clamp with 10 mV depolarizing steps from −94.3 mV. Automated action potential (AP) quantification and analysis was performed using custom MATLAB (MathWorks) software. APs were defined as the voltage crossing 0 mV after a dV/dt>10 mV/ms, defined here as the AP threshold. Input resistance was calculated using Ohm's law with a −10 pA current injection from the resting membrane potential after 250 ms.

[4] = target: 5-HT2A (Homo sapiens, UniProt P28223); assay: Gq-mediated calcium flux assay, Flp-In 293 T-Rex inducible cells (agonist and antagonist mode); assay type: cell-based; design: expressed in transfected cells
[5] = target: 5-HT2B (Homo sapiens, UniProt P41595); assay: as above; assay type: cell-based; design: expressed in transfected cells
[6] = antagonist mode, concentrations up to 10 μM

Chain of 5-HT2A (P28223 whole entry): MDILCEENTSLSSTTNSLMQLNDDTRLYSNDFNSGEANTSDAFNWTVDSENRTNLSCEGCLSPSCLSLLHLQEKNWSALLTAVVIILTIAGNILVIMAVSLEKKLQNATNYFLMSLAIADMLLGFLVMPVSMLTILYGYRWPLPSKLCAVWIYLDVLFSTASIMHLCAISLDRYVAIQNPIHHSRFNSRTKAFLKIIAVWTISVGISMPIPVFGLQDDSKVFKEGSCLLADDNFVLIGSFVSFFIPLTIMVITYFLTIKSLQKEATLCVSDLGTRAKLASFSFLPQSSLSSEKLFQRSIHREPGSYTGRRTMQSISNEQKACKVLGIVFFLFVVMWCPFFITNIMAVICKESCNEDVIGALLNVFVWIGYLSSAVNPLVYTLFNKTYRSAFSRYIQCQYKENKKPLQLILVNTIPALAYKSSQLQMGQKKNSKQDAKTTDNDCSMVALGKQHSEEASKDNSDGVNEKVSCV
T1 sequence (P28223 whole entry): as above
T2 sequence (P28335 33-458): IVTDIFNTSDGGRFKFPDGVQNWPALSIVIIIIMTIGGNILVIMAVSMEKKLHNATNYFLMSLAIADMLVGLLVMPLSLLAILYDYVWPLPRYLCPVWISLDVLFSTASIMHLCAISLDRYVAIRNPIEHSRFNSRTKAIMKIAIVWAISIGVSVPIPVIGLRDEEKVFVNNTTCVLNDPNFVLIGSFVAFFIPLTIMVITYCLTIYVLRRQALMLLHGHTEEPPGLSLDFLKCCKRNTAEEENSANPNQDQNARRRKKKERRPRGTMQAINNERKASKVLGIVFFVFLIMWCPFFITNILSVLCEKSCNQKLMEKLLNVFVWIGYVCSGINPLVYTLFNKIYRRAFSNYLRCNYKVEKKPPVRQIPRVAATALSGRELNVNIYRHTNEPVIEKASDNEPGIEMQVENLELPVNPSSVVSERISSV
Chain of 5-HT2B (P41595 whole entry): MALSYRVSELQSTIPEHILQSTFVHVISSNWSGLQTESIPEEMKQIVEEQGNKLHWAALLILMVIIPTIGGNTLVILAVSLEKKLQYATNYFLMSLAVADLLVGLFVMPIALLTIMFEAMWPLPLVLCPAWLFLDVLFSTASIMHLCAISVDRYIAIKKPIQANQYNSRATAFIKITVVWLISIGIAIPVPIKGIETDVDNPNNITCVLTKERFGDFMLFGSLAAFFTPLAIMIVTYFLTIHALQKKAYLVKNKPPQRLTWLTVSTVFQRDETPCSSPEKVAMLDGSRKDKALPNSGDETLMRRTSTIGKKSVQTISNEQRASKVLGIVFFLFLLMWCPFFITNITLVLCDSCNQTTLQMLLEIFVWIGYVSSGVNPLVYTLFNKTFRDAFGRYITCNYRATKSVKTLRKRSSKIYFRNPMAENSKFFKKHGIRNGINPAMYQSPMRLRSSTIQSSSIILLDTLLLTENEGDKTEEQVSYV

## COc1cc(CCNCCCCCCOCCCCc2ccccc2)c(OC)cc1Br [XOB, N-(4-bromo-2,5-dimethoxyphenethyl)-6-(4-phenylbutoxy)hexan-1-amine]
[1]
  Ki: 2600 nM and 2000 to 3000 nM
[2]; agonist mode, up to 10 μM
  agonist activity at 5-HT2C: little to no measurable agonist activity
[2]; [6]
  inhibition of 5-HT-mediated calcium flux at 5-HT2C: < 50%
[3]; 10 μM
  First AP Max dv/dt: 402.68±46.20 mV/ms and 402.68 mV/ms
  First AP Min dv/dt: −91.32±8.95 mV/ms
  First AP Peak Amplitude: 41.21±2.92 mV and 41.21 ± 2.29 mV
  First AP Threshold: −38.43±1.23 mV
  Input Resistance: 100.08±30.18 MΩ
  Max Firing Rate @ 300 pA: 12.25 ± 1.53 Hz
  Max Firing Rate @ 400 pA: 14±1.82 Hz
  Resting Vm: −63.25±1.15 mV
  Spike Width: 0.76 ± 0.06 ms
[3]; 10 μM vs baseline
  depolarization of the resting membrane potential: +8.45±1.15 mV
  reduction in maximum firing frequency at 400 pA current injections: ~12 Hz
[4]; agonist mode, up to 10 μM
  agonist activity at 5-HT2A: little to no measurable agonist activity
[4]; antagonist mode, 3.2 nM 5-HT, read-out: IC50, antagonism at 5-HT2A
  IC50: 1300 nM
[4]; antagonist mode, read-out: EC50, antagonizes 5-HT2A
  EC50: 1300 nM
[5]; agonist mode, up to 10 μM
  agonist activity at 5-HT2B: little to no measurable agonist activity
[5]; [6]
  inhibition of 5-HT-mediated calcium flux at 5-HT2B: < 50%
